Inhibition data for nine compounds are collected here from publication PMC9516332 (Frontiers in Oncology, 2022).

Experiment in all cases: Kinase panel profiling at 1 µmol/L (MSA or IMAP), percentage inhibition
What all share (format): biochemical

Assay [1] concerns the target panel of 255 wild-type kinases (Homo sapiens, UniProt Q9BUB5). As to conditions: MNK1; 1 µmol/L single concentration; read-out: %-inhibition, MNK1.
Assay [2] has as its target panel of 255 wild-type kinases (Homo sapiens, UniProt Q9Y243). As to conditions: AKT3 kinase assay; 1 µmol/L single concentration; read-out: %-inhibition AKT3.
Assay [3] deals with panel of 255 wild-type kinases (Homo sapiens, UniProt Q9H2X6). The conditions noted are these: kinase HIPK2; 1 µmol/L single concentration; read-out: %-inhibition at 1 µmol/L, HIPK2.
Assay [4] deals with panel of 255 wild-type kinases (Homo sapiens, UniProt Q8N4C8). The conditions noted are these: MINK; 1 µmol/L single concentration; read-out: %-inhibition, MINK.
In assay [5] the target is panel of 255 wild-type kinases (Homo sapiens, UniProt Q9Y6M4). As to conditions: kinase CK1γ3; 1 µmol/L single concentration; read-out: %-inhibition at 1 µmol/L, CK1γ3.
Assay [6] concerns the target panel of 255 wild-type kinases (Homo sapiens, UniProt Q9Y5S2). The conditions noted are these: MRCKβ; 1 µmol/L single concentration; read-out: %-inhibition, MRCKβ.
Assay [7] addresses T1, panel of 255 wild-type kinases (Homo sapiens, UniProt Q15139).
T1 sequence (Q15139 1-912): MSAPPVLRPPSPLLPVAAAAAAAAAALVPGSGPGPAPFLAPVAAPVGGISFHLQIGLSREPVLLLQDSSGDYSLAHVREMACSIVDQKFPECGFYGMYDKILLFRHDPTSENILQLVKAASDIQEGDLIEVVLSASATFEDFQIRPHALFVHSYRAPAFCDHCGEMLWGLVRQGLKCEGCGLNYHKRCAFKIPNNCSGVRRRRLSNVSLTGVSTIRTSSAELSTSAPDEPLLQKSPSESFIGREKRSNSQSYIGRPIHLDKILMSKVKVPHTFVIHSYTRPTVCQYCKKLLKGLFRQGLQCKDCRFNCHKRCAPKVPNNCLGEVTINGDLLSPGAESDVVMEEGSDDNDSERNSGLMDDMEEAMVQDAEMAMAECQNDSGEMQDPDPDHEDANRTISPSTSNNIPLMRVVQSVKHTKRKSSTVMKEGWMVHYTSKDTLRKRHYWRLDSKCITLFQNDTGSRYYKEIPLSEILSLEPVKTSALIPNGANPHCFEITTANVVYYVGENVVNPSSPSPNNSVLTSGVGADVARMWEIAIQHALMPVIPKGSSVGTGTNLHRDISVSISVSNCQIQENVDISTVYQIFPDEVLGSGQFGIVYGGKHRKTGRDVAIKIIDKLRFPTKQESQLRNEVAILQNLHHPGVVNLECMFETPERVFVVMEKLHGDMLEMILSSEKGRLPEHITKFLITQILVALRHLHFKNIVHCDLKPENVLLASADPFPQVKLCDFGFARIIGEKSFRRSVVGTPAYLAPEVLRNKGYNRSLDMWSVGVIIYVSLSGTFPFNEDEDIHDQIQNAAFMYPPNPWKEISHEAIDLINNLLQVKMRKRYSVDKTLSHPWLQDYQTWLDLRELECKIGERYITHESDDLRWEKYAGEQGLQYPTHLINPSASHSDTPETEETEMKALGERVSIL
As to conditions: kinase PKD1; 1 µmol/L single concentration; read-out: %-inhibition at 1 µmol/L, PKD1.

Assay [8] has as its target T2, panel of 255 wild-type kinases (Homo sapiens, UniProt Q9BXA7).
T2 sequence (Q9BXA7 1-367): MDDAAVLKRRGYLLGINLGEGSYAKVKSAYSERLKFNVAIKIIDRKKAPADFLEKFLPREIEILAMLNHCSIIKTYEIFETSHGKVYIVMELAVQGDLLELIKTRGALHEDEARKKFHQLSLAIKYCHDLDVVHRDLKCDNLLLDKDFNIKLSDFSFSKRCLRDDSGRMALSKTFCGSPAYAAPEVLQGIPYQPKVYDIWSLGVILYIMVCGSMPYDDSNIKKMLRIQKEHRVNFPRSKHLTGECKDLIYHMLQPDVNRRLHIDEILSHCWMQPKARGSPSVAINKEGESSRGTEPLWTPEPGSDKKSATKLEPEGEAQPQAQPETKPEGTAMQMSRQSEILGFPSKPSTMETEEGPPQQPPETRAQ
The conditions noted are these: kinase TSSK1; 1 µmol/L single concentration; read-out: %-inhibition at 1 µmol/L, TSSK1.

The target of assay [9] is T3, panel of 255 wild-type kinases (Homo sapiens, UniProt O43781).
T3 sequence (O43781 1-588): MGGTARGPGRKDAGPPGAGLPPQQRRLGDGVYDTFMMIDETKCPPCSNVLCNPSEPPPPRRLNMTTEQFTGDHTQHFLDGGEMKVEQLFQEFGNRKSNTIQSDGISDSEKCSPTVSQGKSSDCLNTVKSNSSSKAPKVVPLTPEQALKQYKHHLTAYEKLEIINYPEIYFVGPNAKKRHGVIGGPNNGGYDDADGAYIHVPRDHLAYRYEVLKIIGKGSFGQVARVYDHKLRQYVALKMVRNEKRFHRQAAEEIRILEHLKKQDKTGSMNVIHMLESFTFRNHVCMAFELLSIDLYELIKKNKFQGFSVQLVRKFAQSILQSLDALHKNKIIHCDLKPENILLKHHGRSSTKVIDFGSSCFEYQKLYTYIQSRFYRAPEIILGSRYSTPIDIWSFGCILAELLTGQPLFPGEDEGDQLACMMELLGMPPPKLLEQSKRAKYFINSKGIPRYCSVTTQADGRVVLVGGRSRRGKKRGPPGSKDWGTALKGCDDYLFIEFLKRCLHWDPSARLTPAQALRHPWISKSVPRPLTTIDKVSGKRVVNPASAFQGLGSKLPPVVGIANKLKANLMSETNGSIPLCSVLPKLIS
As to conditions: kinase DYRK3; 1 µmol/L single concentration; read-out: %-inhibition at 1 µmol/L, DYRK3.

`C[C@H]1Oc2cc(cnc2N)-c2c(nn(C)c2C#N)CN(C)C(=O)c2ccc(F)cc21` [lorlatinib]: the inhibition at 1 µM in assay [1] is 6%; in assay [2], -0.768%; in assay [3], -2%; in assay [4], -0.198%; in [5], -1%; in assay [6], 2.78%. Moreover, the figures for the inhibition at 1 µM in [7], in assay [8] and in [9] were -0.468%, 84% and -3.41%, respectively.
As to `CCN1C(=O)N(c2c(F)c(OC)cc(OC)c2F)Cc2cnc3[nH]c(CN4CCOCC4)cc3c21` [pemigatinib], the inhibition at 1 µM is -4.63% in assay [1]; -2.7% in assay [2]; 2.55% in assay [3]; -4.31% in assay [4]; -1.18% in [5]; -4.4% in assay [6]. The inhibition at 1 µM was 10% in assay [7], 8% in assay [8] and -2.68% in assay [9].
Regarding `FC(F)(F)c1ccc(CNc2ccc(Cc3c[nH]c4ncc(Cl)cc34)cn2)cn1` [pexidartinib], the inhibition at 1 µM was 61% in [1]; -6% in assay [2]; 4.6% in assay [3]; 9% in assay [4]; -0.557% in assay [5]; 2.43% in [6]. The inhibition at 1 µM in [7] is -2.56%; in [8], 12%; in assay [9] it was 8%.
As for `CO[C@]1(C(=O)N[C@@H](C)c2ccc(-n3cc(F)cn3)nc2)CC[C@H](c2nc(C)cc(Nc3cc(C)[nH]n3)n2)CC1` [pralsetinib], the inhibition at 1 µM in assay [1] was -4.32%; in [2], -2.71%; in [3], 11%; in assay [4] it was -3.43%; in assay [5], 0.449%; in [6], 1.9%. For the same compound, the inhibition at 1 µM in assay [7] was 0.3%; in assay [8] it was 4.54%; in [9], -4.32%.
For `CCn1c(=O)c(-c2cc(NC(=O)Nc3ccccc3)c(F)cc2Br)cc2cnc(NC)cc21` [ripretinib], the inhibition at 1 µM was 8.51% in assay [1]; -6.42% in assay [2]; 0.0334% in assay [3]; 3.55% in assay [4]; -8% in [5]; -1.41% in assay [6]. The figures for the inhibition at 1 µM in [7], in assay [8] and in [9] were 15%, -4.3% and -3.77%, respectively.
As to `COc1ccc(CN2C3CC2CN(c2ccc(-c4cc(OCC(C)(C)O)cn5ncc(C#N)c45)cn2)C3)cn1` [selpercatinib], the inhibition at 1 µM in assay [1] was 42%; in [2], -0.71%; in assay [3], 0.223%; in assay [4] it was -5.33%; in assay [5], 12%; in assay [6], -3.65%. Besides, the results for the inhibition at 1 µM in assay [7], in assay [8] and in assay [9] were 3.64%, 45% and 19%, respectively.
Consider `Cn1cnc2c(F)c(Nc3ccc(Br)cc3Cl)c(C(=O)NOCCO)cc21` [selumetinib], for which the inhibition at 1 µM was -6.56% in [1]; -6.42% in assay [2]; 2.71% in assay [3]; -4.5% in assay [4]; -1% in assay [5]; 0.656% in assay [6]. The figures for the inhibition at 1 µM in assay [7], in assay [8] and in assay [9] were -0.6%, 0.947% and -4.7%, respectively.
Regarding `Cc1cc(Nc2ncnc3ccc(NC4=NC(C)(C)CO4)cc23)ccc1Oc1ccn2ncnc2c1` [tucatinib], the inhibition at 1 µM in [1] was -1.41%; in [2] it was -4.58%; in assay [3], 6%; in assay [4], -4.35%; in assay [5], 11%; in [6] it was 2%. Moreover, the inhibition at 1 µM in [7] stood at 28%; in assay [8], 2.58%; in assay [9], 1.07%.
In the case of `C=CC(=O)N1CCC([C@@H]2CCNc3c(C(N)=O)c(-c4ccc(Oc5ccccc5)cc4)nn32)CC1` [zanubrutinib], the inhibition at 1 µM in assay [1] is -4.39%; in assay [2], -3%; in assay [3], -0.321%; in assay [4], -1.27%; in [5], -0.464%; in assay [6], -1.23%. Besides, the inhibition at 1 µM in assay [7] was 5%; in assay [8], 2.13%; in assay [9], -6%.
